Laboratory results reported in publication PMC5640644, “HDX reveals the conformational dynamics of DNA sequence specific VDR co-activator interactions” (Nature Communications, 2017).
Like-named read-outs stand apart in the source and are kept apart here.

Tests used:
BGLAP = BGLAP gene activation assay (BGLAP mRNA, QuantiGene 2.0) in MG-63 cells; assay type: cell-based, human; settings: MG-63 cells; for EC50: 24 h, average of replicate runs, read-out: EC50, BGLAP activation; for Max. Stim., BGLAP activation: fold change over DMSO normalized to 1,25D3 = 100%
Experimental: Human osteosarcoma cells MG-63, (CRL-1427, American Type Culture Collection (ATCC), Manassas, VA), were maintained in EMEM (ATCC 30–2003) + 10% FBS in 5% CO2. For bone gamma-carboxyglutamate protein (BGLAP) expression analysis MG-63 cells, suspended in EMEM (ATCC 30–2003) + 5% charcoal dextran treated FBS, were seeded onto 96-well tissue culture treated plates at 25,000 cells per well. After an overnight incubation the medium was removed and serial dilutions of VDRMs in concentrations ranging from 10 μM to 2 nM in EMEM (ATCC 30–2003) + 5% charcoal dextran treated FBS were added. Following a 24 h incubation the medium was removed and the plates were sealed and stored at −80 °C for later processing. QuantiGene 2.0 Assay Kit (Affymetrix QS0009) was used to quantitate BGLAP and the Housekeeping gene […] mRNA levels. Following the kit instructions, lysis buffer was added to the frozen cells and incubated briefly at 55 °C. A volume of 20 μl of BGLAP probeset (Affymetrix SA-10875-01) or 18 S (Affymetrix SA-10026) in blocking buffer was added to the provided capture plates before adding 80 μl of the cell lysate. The plates were sealed and incubated at 55 °C overnight. Following an overnight incubation the capture plates were washed and the probes amplified following kit instructions. The resulting luminescence signal was detected on an Envision (Perkin Elmer). BGLAP signal was normalized using the 18S signal and the resulting data was fit to a 4-parameter logistics to determine EC50.

RXRα = molecular target: T1, RXRα (Homo sapiens, UniProt P19793); assay: Differential HDX-MS of RXRα alone with and without ligand; assay type: binding; settings: without VDR
T1 construct: Flag; made in house; host or cells: baculovirus system
T1 sequence (P19793 1-462): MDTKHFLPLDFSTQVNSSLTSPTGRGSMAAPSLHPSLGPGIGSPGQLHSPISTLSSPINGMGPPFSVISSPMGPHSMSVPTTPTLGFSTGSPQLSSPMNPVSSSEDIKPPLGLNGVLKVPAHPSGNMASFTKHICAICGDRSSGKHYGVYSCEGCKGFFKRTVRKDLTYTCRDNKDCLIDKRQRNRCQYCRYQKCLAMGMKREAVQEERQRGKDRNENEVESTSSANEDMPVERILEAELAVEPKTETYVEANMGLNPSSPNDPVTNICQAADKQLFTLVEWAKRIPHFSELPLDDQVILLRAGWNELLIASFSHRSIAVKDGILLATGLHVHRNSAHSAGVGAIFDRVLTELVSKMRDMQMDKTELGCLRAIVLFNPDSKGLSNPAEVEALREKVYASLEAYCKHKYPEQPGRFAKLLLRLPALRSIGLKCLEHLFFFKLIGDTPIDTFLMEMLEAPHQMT
Experimental: Full-length WT His-hVDR (Δ (151–190)) and WT Flag-h RXRα were expressed in a baculovirus system and purified by Ni-NTASEC or Flag-SEC, respectively. His-hSRC1 RID (627–786) variant 1 (NM_003743) was expressed in Escherichia coli (BL21 DE3) and purified using His-Trap (GE Healthcare). The final protein buffer was 50 mM Tris (pH 8.0), 150 mM NaCl, 10% glycerol and 2 mM DTT. The purity of each protein was > 95% and was verified using SDS-PAGE, western blot and MALDI MS.
HDX-MS analysis: 10 μM of the apo protein was mixed with 1:10 molar excess of ligand and incubated for 2 h at 4 °C for complex formation before subjecting them to HDX analysis. […] The intensity weighted mean m/z centroid value of each peptide envelope was calculated and subsequently converted into a percentage of deuterium incorporation. […] In the absence of a fully deuterated control, 100% deuterium incorporation was calculated theoretically, and corrections for back-exchange were made on the basis of an estimated 70% deuterium recovery and accounting for 79.9% final deuterium concentration in the sample (1:5 dilution in D2O HDX buffer). Statistical significance for the differential HDX data is determined by an unpaired t-test for each time point, a procedure that is integrated into the HDX Workbench software. […]

Structure (SMILES)	EC50 (BGLAP; Homo sapiens)	Max. Stim., BGLAP activation (BGLAP)	conformational changes of RXRα upon ligand binding (HDX) (RXRα)	EC50 (BGLAP)
CCc1cc(C(CC)(CC)c2ccc(OCC(O)C(C)(C)C)c(C)c2)sc1C(=O)N[C@@H](C)C(=O)O (single isomer, unassigned) [Cmpd2, L-2-[(5-{1-Ethyl-1-[4-(2-hydroxy-3,3-dimethyl-butoxy)-3-methyl-phenyl]-propyl}-3-ethyl-thiophene-2-carbonyl)-amino]-propionic acid]	34.9 nM	73%		
CCC(CC)(c1ccc(OCC(O)C(C)(C)C)c(C)c1)c1ccc(C(=O)N(C)CC(=O)O)c(C)c1 (stereo not shown) [Cmpd1, [(4-{1-ethyl-1-[4-(2-hydroxy-3,3-dimethyl-butoxy)-3-methyl-phenyl]-propyl}-2-methyl-benzoyl)-methyl-amino]-acetic acid]	1.44 nM	94.2%	no detectable conformational changes	
CCC(CC)(c1ccc(OCC(O)C(C)(C)C)c(C)c1)c1cc(C)c(C(=O)Nc2nnn[nH]2)s1 (stereo not shown) [Cmpd3, 3'-[4-(2-hydroxy-3,3-dimethylbutoxy)-3-methylphenyl]-3'-[5-(tetrazol-5-yl-aminocarbonyl)-4-methylthiophen-2-yl]pentane]		75.9%		698 nM
